# Source: US20080058300A1, “Induction of weight loss and the selective inhibition of PTP1B” (priority 2006, published 2008)
# Tests used:
# TCPTP = target: T1, TCPTP (Homo sapiens, UniProt P17706); test: TCPTP enzyme inhibition assay (DiFMUP substrate, spectrofluorimetric); format: biochemical
# T1 construct: MDS Pharma (contract assay); host or cells: E. coli
# T1 sequence (P17706 1-415): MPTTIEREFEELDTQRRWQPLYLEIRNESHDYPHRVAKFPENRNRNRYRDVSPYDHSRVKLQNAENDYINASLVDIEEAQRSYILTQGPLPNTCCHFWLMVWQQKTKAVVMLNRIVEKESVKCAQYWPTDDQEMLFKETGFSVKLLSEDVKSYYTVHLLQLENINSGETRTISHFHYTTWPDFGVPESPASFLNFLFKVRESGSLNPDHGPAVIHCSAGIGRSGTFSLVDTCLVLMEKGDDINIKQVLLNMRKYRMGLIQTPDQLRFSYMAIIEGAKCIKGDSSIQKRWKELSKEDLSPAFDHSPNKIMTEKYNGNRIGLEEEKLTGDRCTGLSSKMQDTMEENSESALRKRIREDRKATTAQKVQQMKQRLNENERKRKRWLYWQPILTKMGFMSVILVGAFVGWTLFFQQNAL
# Method: In the PTP1B assay, phosphatase activity was quantitated through ELISA analysis of remaining tyrosine phosphopeptide after 30-minute incubations at room temperature with various concentrations of 1436 (0.05 μM to […]). […] The TCPTP assay required a 15-minute preincubation of enzyme and substrate at 37° C. followed by 60-minute incubations at 37° C. with various concentrations of 1436 (0.5 μM to 50 μM). TCPTP activity was assessed by spectrofluorimetric quantitation of DiFMU.
# [1] = target: T2, Dopamine Transporter (DAT) (Homo sapiens, UniProt Q01959); test: Radioligand binding assay, [125I] RTI-55, Dopamine Transporter; settings: human recombinant, CHO-K1 cell membranes; [125I] RTI-55 0.15 nM; 3 hours at 4° C.; read-out: ˜IC50, inhibition of binding to DAT
# T2 construct: expressed in transfected cells; host or cells: CHO-K1 cells (membrane preparations)
# T2 sequence (Q01959 whole entry): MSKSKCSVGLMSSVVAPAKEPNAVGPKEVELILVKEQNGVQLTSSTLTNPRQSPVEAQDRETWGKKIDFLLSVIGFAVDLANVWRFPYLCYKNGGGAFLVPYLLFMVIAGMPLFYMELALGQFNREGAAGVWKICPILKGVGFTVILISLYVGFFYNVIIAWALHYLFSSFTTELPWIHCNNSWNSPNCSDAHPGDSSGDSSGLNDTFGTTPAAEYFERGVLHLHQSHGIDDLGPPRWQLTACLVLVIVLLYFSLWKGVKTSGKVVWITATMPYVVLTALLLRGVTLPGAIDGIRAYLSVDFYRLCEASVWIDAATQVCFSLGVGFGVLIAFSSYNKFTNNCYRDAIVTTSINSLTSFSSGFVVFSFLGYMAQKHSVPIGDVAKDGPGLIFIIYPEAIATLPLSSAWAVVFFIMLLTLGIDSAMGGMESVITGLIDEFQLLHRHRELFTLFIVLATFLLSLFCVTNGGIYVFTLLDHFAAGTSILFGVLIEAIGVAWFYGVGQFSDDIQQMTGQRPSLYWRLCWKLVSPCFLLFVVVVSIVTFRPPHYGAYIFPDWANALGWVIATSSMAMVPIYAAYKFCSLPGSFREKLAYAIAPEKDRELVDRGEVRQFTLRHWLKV
# Method: (§1) Inhibition of binding to the Dopamine Transporter (DAT) and Norepinephrine Transporter (NET) by MSI-1436 was determined in radioligand binding assays using human recombinant proteins expressed in CHO-K1 or MDCK cells, respectively. Membrane preparations were incubated with [^125I] RTI-55 (0.15 nM for DAT, 0.20 nM for NET) in the presence of 1436 (0.005 μM to 50 μM) for 3 hours at 4° C. IC50 values were determined as in PTP1B assays (See Table 2).
# [2] = target: T3, Norepinephrine Transporter (NET) (Homo sapiens, UniProt P23975); test: Radioligand binding assay, [125I] RTI-55, Norepinephrine Transporter; settings: human recombinant, MDCK cell membranes; [125I] RTI-55 0.20 nM; 3 hours at 4° C.; read-out: ˜IC50, inhibition of binding to NET
# T3 construct: expressed in transfected cells; host or cells: MDCK cells (membrane preparations)
# T3 sequence (P23975 whole entry): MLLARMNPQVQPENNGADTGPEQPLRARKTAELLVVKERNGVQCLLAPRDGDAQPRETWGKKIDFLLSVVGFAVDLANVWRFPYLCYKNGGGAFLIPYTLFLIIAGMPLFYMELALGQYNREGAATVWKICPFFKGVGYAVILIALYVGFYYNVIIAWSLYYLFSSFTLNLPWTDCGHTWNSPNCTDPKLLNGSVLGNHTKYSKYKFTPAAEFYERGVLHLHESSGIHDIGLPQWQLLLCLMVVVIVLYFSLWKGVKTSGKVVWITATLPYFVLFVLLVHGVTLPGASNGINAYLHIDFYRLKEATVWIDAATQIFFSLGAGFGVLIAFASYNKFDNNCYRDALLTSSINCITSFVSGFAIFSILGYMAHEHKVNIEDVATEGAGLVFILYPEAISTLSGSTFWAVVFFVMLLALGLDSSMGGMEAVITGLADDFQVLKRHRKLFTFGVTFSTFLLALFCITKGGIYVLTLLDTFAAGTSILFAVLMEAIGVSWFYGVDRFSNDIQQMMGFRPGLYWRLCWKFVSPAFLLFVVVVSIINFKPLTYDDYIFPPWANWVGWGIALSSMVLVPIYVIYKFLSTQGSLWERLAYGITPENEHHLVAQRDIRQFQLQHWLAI
# Method: as §1
# [3] = target: T4, CHO-K1 cells expressing dopamine transporters (Homo sapiens, UniProt Q01959); test: Cellular uptake of [3H] Dopamine; format: cell-based
# T4 construct: expressed in transfected cells; host or cells: CHO-K1 cells
# T4 sequence (Q01959 whole entry): as the sequence (Q01959 whole entry) above
# Method: (§2) After 10-minute incubations of the cells with radioactive ligands in the presence of compound at room temperature, quantitation of [^3H] Dopamine or [^3H] […] Significance criteria for antagonism was met if there was ≧50% inhibition of uptake as compared to the induced response of nomifensine (DAT) or desipramine (NET).
# [4] = target: T5, MDCK cells expressing norepinephrine transporters (Homo sapiens, UniProt P23975); test: Cellular uptake of [3H] Norepinephrine; format: cell-based
# T5 construct: expressed in transfected cells; host or cells: MDCK cells
# T5 sequence (P23975 whole entry): as the sequence (P23975 whole entry) above
# Method: as §2
# [5] = test system: male AKR/J mice on 10%, 45% or 60% fat kcal diet; test: Induction of weight loss in diet induced obese mice; format: in vivo
# Description: (§3) Mice and Study Design. At weaning, male AKR/J mice from Jackson Laboratories (Bar Harbor, Me., USA) were placed on a 10%, 45%, or 60% fat kcal diet (Research Diets, Inc., New Brunswick, N.J., USA). Mice were weighed weekly and treatment began after 13-14 weeks of access to the different fat diets. Immediately before the start of treatment, mice from all three diets were randomly subdivided further into three groups within the same fat composition diet with an even weight distribution. All mice were dosed (i.p. route) on a q7dx4 schedule, where the first dose of 1436 was 10 mg/kg and all remaining doses were 5 mg/kg. Saline-treated animals were administered 10 mL/kg. Pair-fed animals were dosed with saline (10 mL/kg) on the same q7dx4 schedule on a 1-day stagger from the other groups. As a measure of food consumption, remaining food was weighed daily. Pair-fed groups were allotted the exact amount of food consumed by 1436-treated groups in the 24 hours prior. All procedures involving mice were performed in accordance with protocols approved by the Institutional Animal Care and Use Committee.
# [6] = test system: male AKR/J mice on 10%, 45% or 60% fat kcal diet; test: Body composition of diet induced obese mice at end of study; format: in vivo; settings: i.p. q7dx4, 10 then 5 mg/kg
# Description: as §3, with “Pair-fed groups were allotted the exact amount of food consumed by 1436-treated groups in the 24 hours prior. All procedures involving mice were performed in accordance with protocols approved by the Institutional Animal Care and Use Committee.” left out
# Body Composition. Body composition (percent moisture, fat, protein and ash) was determined according to methods described with modifications (Official Methods of Analysis of AOAC INTERNATIONAL, 2000). […] Protein was determined through the combustion method for nitrogen detection and a factor of 6.25 was used to convert percent nitrogen to percent protein. To determine ash, samples were ignited at 550° C. for 5 hours and quantified gravimetrically.
# [7] = test system: male AKR/J mice on 60% fat diet; test: Histology of adipose tissue in mice on 60% fat diet; format: in vivo; settings: mouse on 60% fat diet; i.p. q7dx4, 10 then 5 mg/kg
# Description: as §3
# Histology. Intrascapular brown adipose tissue was fixed in 10% zinc formalin (Fisher Scientific, Kalamazoo, Mich., USA) for 48 hours and transferred to 70% EtOH. Tissues were embedded in paraffin and […] sections were applied to glass microscope slides. […]
# HepG2 cells = test: Insulin receptor-beta phosphorylation in HepG2 cells (immunoprecipitation, Western blot); format: cell-based
# Method: HepG2 cells (immortalized hepatocyte cells) were treated with 10 nM insulin, […], neither, or both for either 30 minutes or 3 hours in vitro. […] No difference in the amounts of insulin receptor-beta (IR-beta) was noted (Panel A). […] This effect was slightly diminished at 3 hours.
# ob/ob mice = test: Ex vivo liver IRS-1 phosphorylation in ob/ob mice (effect on PTP1B); settings: single dose 10 mg/kg i.p., 24 hours after treatment, livers harvested 2 min after portal vein insulin
# Method: To examine the effect of MSI-1436 on PTP1B ex vivo, ob/ob mice were treated with either vehicle, MSI-1436 (single dose, 10 mg/kg, i.p.) or pair-fed control mice (n=4 per group). Twenty-four hours after the single treatment, mice were anesthetized and portal vein was exposed via an incision. Insulin or phosphate buffered saline (PBS) was injected into the portal vein and livers were harvested 2 min after the injection. Livers were lysed and lysates were immunoprecipitated with anti-insulin receptor substrate-1 (IRS-1) and then blotted for phosphotyrosine with the resultant blots representing phosphorylated insulin receptor substrate-1 (P-IRS-1). The blots were analyzed using imaging software.
smiles,measurement,setting,value
CC(C)[C@@H](CC[C@@H](C)[C@H]1CC[C@H]2[C@@H]3[C@H](O)C[C@H]4C[C@@H](NCCCNCCCCNCCCN)CC[C@]4(C)[C@H]3CC[C@]12C)OS(=O)(=O)O [compound 1436],inhibition of TCPTP at the concentrations tested,TCPTP; 1436 0.5 μM to 50 μM,no inhibition
same,IC50,"TCPTP; human recombinant protein expressed in E. Coli, DiFMUP 10 μM, 60-minute incubation at 37° C., estimated",> 50 µM
same,IC50,[1],1740 nM
same,IC50,[2],3.24 µM
same,inhibition at 0.05 µM,"[3]; CHO-K1, 1436 0.05 μM",1%
same,inhibition at 0.25 µM,"[3]; CHO-K1, 1436 0.25 μM",39%
same,inhibition at 0.5 µM,"[3]; CHO-K1, 1436 0.5 μM",57%
same,inhibition at 2.5 µM,"[3]; CHO-K1, 1436 2.5 μM",81%
same,inhibition at 5 µM,"[3]; CHO-K1, 1436 5.0 μM",94%
same,IC50,"[3]; CHO-K1 cells, 10-minute incubation at room temperature, read-out: IC50, inhibition of Dopamine uptake",422 nM
same,IC50,"[4]; MDCK cells, 10-minute incubation at room temperature, read-out: IC50, inhibition of Norepinephrine uptake",718 nM
same,inhibition at 0.05 µM,"[4]; MDCK, 1436 0.05 μM",22%
same,inhibition at 0.25 µM,"[4]; MDCK, 1436 0.25 μM",26%
same,inhibition at 0.5 µM,"[4]; MDCK, 1436 0.5 μM",33%
same,inhibition at 2.5 µM,"[4]; MDCK, 1436 2.5 μM",78%
same,inhibition at 5 µM,"[4]; MDCK, 1436 5.0 μM",95%
same,body weight after treatment,"[5]; 10%, 45% and 60% fat diet groups, i.p. q7dx4, first dose 10 mg/kg, remaining 5 mg/kg, three weeks",lost weight
same,effect on weight loss versus pair-fed group,"[5]; i.p. q7dx4, 10 then 5 mg/kg, greatest in 60% fat group (p value 0.013)",greater than the effect of diet alone
same,% body fat (body composition at end of study),"[6]; all diets (10%, 45%, 60% fat)",lose significant % body fat
same,loss of body fat versus pair-fed groups,[6],trend for greater loss of body fat
same,"amount of fat in brown adipose tissue (BAT), histology",[7],lost all of the fat gained by the 60% diet
same,"amount of fat in white adipose tissue (WAT), histology",[7],lost all of the fat gained by the 60% diet
same,"IR-beta phosphorylation, insulin plus MSI-1436 versus insulin alone","HepG2 cells; 10 nM insulin and 10 µM MSI-1436, 30 minutes",increased IR-beta phosphorylation
same,"IR-beta phosphorylation, MSI-1436 alone","HepG2 cells; 10 µM MSI-1436 without insulin, 30 minutes or 3 hours",did not induce phosphorylation
same,insulin-induced phosphorylation of IRS-1 in liver,ob/ob mice,enhanced the insulin-induced phosphorylation of IRS-1
